Source: patent US20260250278A1, “PHENYL-SUBSTITUTED DIHYDRONAPHTHYRIDINE COMPOUNDS, AND PREPARATION AND USE THEREOF” (SUZHONG PHARMACEUTICAL GROUP CO., LTD., priority 2022, published 2026)
pIC50: −log10 of the molar value.

Tests used:
[1] = Pharmacokinetic test of mice (intravenous administration); type: in vivo; conditions: mouse, plasma; CD1 mice, intravenous 1 mg/kg
Procedure: This experiment was intended to evaluate a pharmacokinetic behavior of a compound after intravenous injection or intragastric administration in the mice. Intravenous injection administration: a test compound was prepared into 0.2 mg/mL clear solution, a solvent was 10% ethanol/40% polyethylene glycol 400/50% ultrapure water, and after administration, plasma was collected 0.083 hour, 0.25 hour, 0.5 hour, 1 hour, 2 hours, 4 hours, 8 hours, 24 hours and 48 hours later.
(§1) A concentration of the test compound in the plasma was determined by high-performance liquid chromatography-tandem mass spectrometry (LC-MS/MS). Retention time, chromatogram collection and chromatogram integration of compounds and internal standards were treated by software Analyst (Applied Biosystems), and data statistics was treated by software Analyst (Applied Biosystems).
(§2) A plasma concentration was treated by a non-atrioventricular model of Winnonlin™ Version 6.1 (Pharsight, Mountain View, CA) pharmacokinetic software, and pharmacokinetic parameters were calculated by a linear logarithmic trapezoid method.

CYP3A4 = CYP3A4 (Homo sapiens, UniProt P08684); experiment: biochemical; type: in vitro ADME
Chain of CYP3A4 (P08684 2-503 limits assumed): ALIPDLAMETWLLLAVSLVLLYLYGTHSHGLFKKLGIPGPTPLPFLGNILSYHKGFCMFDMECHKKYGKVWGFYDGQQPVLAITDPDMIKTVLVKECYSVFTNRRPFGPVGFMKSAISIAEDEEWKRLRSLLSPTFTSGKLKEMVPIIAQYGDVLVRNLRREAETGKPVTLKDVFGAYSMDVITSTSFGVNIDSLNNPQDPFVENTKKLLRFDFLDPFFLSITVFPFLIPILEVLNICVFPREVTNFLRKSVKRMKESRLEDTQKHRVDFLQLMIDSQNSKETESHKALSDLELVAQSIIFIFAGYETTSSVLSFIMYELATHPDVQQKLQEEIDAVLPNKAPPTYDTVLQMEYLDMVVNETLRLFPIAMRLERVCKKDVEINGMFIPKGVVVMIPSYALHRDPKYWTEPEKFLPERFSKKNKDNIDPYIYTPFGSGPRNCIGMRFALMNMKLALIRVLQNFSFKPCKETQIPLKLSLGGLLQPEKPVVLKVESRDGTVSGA

[2] = Pharmacokinetic test of rats (intravenous and intragastric administration); type: in vivo; conditions: SD rats
Procedure: This experiment was intended to evaluate a pharmacokinetic behavior of an implementing compound after intravenous injection or intragastric administration in the rats. Intravenous injection administration: a test compound was prepared into 0.2 mg/mL clear solution, a solvent was 10% ethanol, 40% polyethylene glycol 400 and 50% water, and after administration, plasma was collected 0.083 hour, 0.25 hour, 0.5 hour, 1 hour, 2 hours, 4 hours, 8 hours and 24 hours later. Intragastric administration: a test compound was prepared into 1 mg/mL clear solution, a solvent was 10% ethanol/40% polyethylene glycol 400/50% water, and after administration, plasma was collected 0.25 hour, 0.5 hour, 1 hour, 2 hours, 4 hours, 8 hours and 24 hours later.
as §1, §2
Pharmacokinetic parameters of the compounds in the rats with an intravenous injection dose of 1 mg/kg and an intragastric and oral dose of 5 mg/kg were as shown in Table 20 below.

[3] = rat, plasma, intragastric and oral administration 5 mg/kg
[4] = rat, plasma, intravenous 1 mg/kg

| AUC(0-t) [1] | pIC50 (CYP3A4; CYP3A4-5M IC50, human CYP3A4, CYP3A4-5M) | pIC50 (CYP3A4; CYP3A4-5T IC50, human CYP3A4, CYP3A4-5T) | F ([2]; intragastric and oral administration 5 mg/kg) | AUC(0-t) [2, 3] | Cmax [2, 3] | AUC(0-t) [2, 4] | clearance [2, 4] | half-life [2, 4] | Compound |
| --- | --- | --- | --- | --- | --- | --- | --- | --- | --- |
| 2.55 µg·h/mL | – | – | – | – | – | – | – | – | CCOc1nc2ccsc2c2c1[C@H](c1ccc(C#N)cc1OC)C(C(N)=O)=C(C)N2 [Example 38, (S)-6-(4-cyano-2-methoxyphenyl)-5-ethoxy-8-methyl-6,9-dihydrothieno[3,2-h][1,6]naphthyridine-7-formamide] |
| 142 µg·h/mL | 5.00 | 5.10 | 60.3% | 307 µg·h/mL | 23800 ng/mL | 91.2 µg·h/mL | 0.34 mL/min/kg | 9.62 h | CCOc1ncc(C)c2c1[C@H](c1ccc(C#N)cc1OC)C(C(N)=O)=C(C)N2 [Finerenone, reference compound] |
